This is an account of results in patent US20260240755A1, “Use Of Plant Cell Suspension Extracellular Vesicle-Derived Small Rnas As Cosmetic Active Ingredient” (ACTV BiYOTEKNOLOJi LABORATUVAR SANAYi VE TiCARET ANONiM …, priority 2023, published 2026).

Test [1] relates to H. cordata cell suspension. In words: Elicitor effect on amount of small RNA from cell suspension EVs. Format: cell-based, Houttuynia cordata. Conditions: for amount of RNA obtained from nutrient medium EVs compared to the control group: elicitor added on the 14th day, 0.2-0.8 mM, 1-3 days.
The test system of test [2] is H. cordata cell suspension. In words: Elicitor effect on cell suspension biomass (lyophilized cell weight). Conditions: elicitor treatment. The test is classed as cell-based, Houttuynia cordata. As to the method: On the 14th day of the culture, the cell suspension medium was supplemented with 0.2-0.4 and 0.8 mM MeJA or SA, and the suspensions were subjected to additional incubation for 1, 2, and 3 days. After the incubation periods of H. cordata cell suspension cultures were completed, the cells were passed through a filter, and the cultures were terminated. Subsequently, cells from all groups were lyophilized. The weights of the lyophilized cells were measured and recorded.

With `CC/C=C\CC1C(=O)CCC1CC(=O)OC` (stereo not drawn) [MeJA, Methyl jasmonate], in test [1] (0.2 mM MeJA for 72 hours), the “amount of small RNA obtained” value came out at 3000 ng/µL and the “amount of small RNA relative to the control group” value turned out to be 1.9 times. Also, the “amount of RNA obtained from nutrient medium EVs compared to the control group” value in test [1] was “led to an increase”. Further, the “quantity of H. cordata cell suspensions (lyophilized cell weight) compared to the control group” value in test [2] is “No statistically significant difference”.

For the molecule `O=C(O)c1ccccc1O` [SA, Salicylic acid], the “amount of RNA obtained from nutrient medium EVs compared to the control group” value in test [1] is recorded as “did not result in a significant increase”. The “quantity of H. cordata cell suspensions (lyophilized cell weight) compared to the control group” value in test [2] is listed as “No statistically significant difference”.
